For orientation: pEC50 means the negative decadic logarithm of the EC50, by convention in mol/L.

pEC50: −log10 of the molar value.

In the assay the target is T1, mGluR2 receptor (metabotropic glutamate receptor 2) (Homo sapiens, UniProt Q14416).
T1 construct: expressed in transfected cells
The assay is described as follows: mGluR2 Potentiator Screen, FLIPR, EC10-EC20 glutamate challenge. The settings on record: read-out: EC50. In kind it is cell-based. The gist of the method: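 HEK cells stably co-expressing mGluR2 and Gα15, kept glutamine-free overnight, were loaded with Fluo-4 plus probenecid and GPT/pyruvate. Compounds (top 10 μM) were added ≥30 min before an EC10–EC20 glutamate challenge. Peak FLIPR fluorescence ratios were curve-fitted, excluding points above maximal effect, with maxima from on-plate standards.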

T1 sequence (Q14416 19-872, species assumed): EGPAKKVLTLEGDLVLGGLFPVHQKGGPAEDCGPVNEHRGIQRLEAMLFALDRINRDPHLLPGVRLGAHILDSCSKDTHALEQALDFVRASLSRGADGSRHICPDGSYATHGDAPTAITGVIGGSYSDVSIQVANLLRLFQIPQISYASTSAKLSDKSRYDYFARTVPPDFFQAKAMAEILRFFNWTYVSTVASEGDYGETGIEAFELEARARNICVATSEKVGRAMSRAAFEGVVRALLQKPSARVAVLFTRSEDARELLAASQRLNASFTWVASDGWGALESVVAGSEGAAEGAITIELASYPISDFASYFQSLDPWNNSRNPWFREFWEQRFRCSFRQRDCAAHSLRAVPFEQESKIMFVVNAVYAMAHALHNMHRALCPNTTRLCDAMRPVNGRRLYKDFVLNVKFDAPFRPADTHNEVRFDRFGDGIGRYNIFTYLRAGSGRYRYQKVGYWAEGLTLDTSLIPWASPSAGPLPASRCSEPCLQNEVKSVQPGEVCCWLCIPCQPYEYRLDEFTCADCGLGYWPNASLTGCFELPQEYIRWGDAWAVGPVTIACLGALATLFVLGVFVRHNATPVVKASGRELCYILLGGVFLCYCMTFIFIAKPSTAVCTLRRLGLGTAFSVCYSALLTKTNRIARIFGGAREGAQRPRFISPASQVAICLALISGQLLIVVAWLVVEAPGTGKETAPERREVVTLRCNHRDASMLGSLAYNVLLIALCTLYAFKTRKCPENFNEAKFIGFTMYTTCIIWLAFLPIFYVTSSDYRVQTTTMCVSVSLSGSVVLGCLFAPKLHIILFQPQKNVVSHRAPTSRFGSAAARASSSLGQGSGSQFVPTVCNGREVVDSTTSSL

Consider `Cn1c(CN2CCC(c3ccccc3C(F)(F)F)CC2)nc2cc(Cl)ccc21` [compound 373], for which the pEC50 was 5.76.
As to `Cn1c(CN2CCC(c3cccc(C(F)(F)F)c3)CC2)nc2cc(F)ccc21` [compound 374], the pEC50 was 6.61.
As to `Cn1c(CN2CCC(c3cc(C(F)(F)F)ccc3F)CC2)nc2cc(F)ccc21` [compound 375], the pEC50 was 6.46.
In the case of `Cn1c(CN2CCC(c3cc(F)cc(F)c3)CC2)nc2cc(F)ccc21` [compound 376], the pEC50 was 6.52.
Take `COc1ccc(C(F)(F)F)cc1C1CCN(Cc2nc3cc(F)ccc3n2C)CC1` [compound 377]: the pEC50 was 6.07.
To `COc1cccc(C2CCN(Cc3nc4cc(F)ccc4n3C)CC2)c1` [compound 378] belongs 6.25; to `CC(C)Oc1ccccc1C1CCN(Cc2nc3cc(Cl)ccc3n2C)CC1` [compound 379], 5.80; to `Cn1c(CN2CCC(c3cc(Cl)ccc3F)CC2)nc2cc(Cl)ccc21` [compound 380], 5.76.
To `Cn1c(CN2CCC(c3cccc(C(F)(F)F)c3)CC2)nc2cc(Cl)ccc21` [compound 381] belongs 5.80; to `Cn1c(CN2CCC(c3cc(F)cc(F)c3)CC2)nc2cc(Cl)ccc21` [compound 382], 5.15; to `COc1cc(C(F)(F)F)ccc1C1CCN(Cc2nc3cc(Cl)ccc3n2C)CC1` [compound 383], 6.51.
As to `Cn1c(CN2CCC(c3ccc(C(F)(F)F)cc3F)CC2)nc2cc(Cl)ccc21` [compound 384], the pEC50 was 6.31.
Then `COc1cccc(C2CCN(Cc3nc4cc(Cl)ccc4n3C)CC2)c1` [compound 385], with 5.56; and `COc1ccc(C(F)(F)F)cc1C1CCN(Cc2nc3cc(Cl)ccc3n2C)CC1` [compound 386], with less than 5.43; and `Cn1c(CN2CCC(c3cc(Cl)ccc3F)CC2)nc2cc(C#N)ccc21` [compound 387], with 6.70.
Then `COc1ccc(C(F)(F)F)cc1C1CCN(Cc2nc3cc(C#N)ccc3n2C)CC1` [compound 388], with 6.23; and `Cn1c(CN2CCC(c3cccc(C(F)(F)F)c3)CC2)nc2cc(C#N)ccc21` [compound 389], with 6.55; and `COc1cc(C(F)(F)F)ccc1C1CCN(Cc2nc3cc(C#N)ccc3n2C)CC1` [compound 390], with 7.28.
Consider `Cn1c(CN2CCC(c3ccc(C(F)(F)F)cc3F)CC2)nc2cc(C#N)ccc21` [compound 391], for which the pEC50 was 7.35.
To `Cn1c(CN2CCC(c3cc(C(F)(F)F)ccc3F)CC2)nc2cc(C#N)ccc21` [compound 392] belongs 6.36; to `CC(C)Oc1ccccc1C1CCN(Cc2nc3c(F)cccc3n2C)CC1` [compound 393], 5.99; to `Cn1c(CN2CCC(c3ccccc3C(F)(F)F)CC2)nc2c(F)cccc21` [compound 394], 6.63.
Take `Cn1c(CN2CCC(c3cc(F)cc(F)c3)CC2)nc2c(F)cccc21` [compound 395]: the pEC50 is 6.48.
To `Cn1c(CN2CCC(c3cccc(C(F)(F)F)c3)CC2)nc2c(F)cccc21` [compound 396] belongs 6.91; to `COc1ccc(C(F)(F)F)cc1C1CCN(Cc2nc3c(F)cccc3n2C)CC1` [compound 397], 6.36; to `Cn1c(CN2CCC(c3ccc(C(F)(F)F)cc3F)CC2)nc2c(F)cccc21` [compound 398], 7.40.
Then `COc1cc(C(F)(F)F)ccc1C1CCN(Cc2nc3c(F)cccc3n2C)CC1` [compound 399], with more than 7.91; and `COc1cc(C(F)(F)F)ccc1C1CCN(Cc2nc3c(F)cccc3n2C)CC1` [compound 400], with 7.36.
To `Cn1c(CN2CCC(c3cc(C(F)(F)F)ccc3F)CC2)nc2c(F)cccc21` [compound 401] belongs 6.79; to `CC(C)Oc1ccccc1C1CCN(Cc2nc3cc(C#N)ccc3n2C)CC1` [compound 402], 6.28.
Turning to `Cn1c(CN2CCC(c3ccccc3C(F)(F)F)CC2)nc2cc(C#N)ccc21` [compound 403], the pEC50 was 6.65.
On to `COc1cc(C(F)(F)F)ccc1C1CCN(Cc2nc3cccc(F)c3n2C)CC1` [compound 406], for which the pEC50 is 6.93.
On to `COc1cc(F)ccc1C1CCN(Cc2nc3cccc(F)c3n2C)CC1` [compound 407], for which the pEC50 was 6.78.
Then `COc1cc(F)ccc1C1CCN(Cc2nc3cc(F)ccc3n2C)CC1` [compound 408], with 7.17; and `COc1cc(F)ccc1C1CCN(Cc2nc3ccccc3n2C)CC1` [compound 409], with 7.20.
Then `Cn1c(CN2CC[C@@H](c3ccc(F)cc3)[C@H](COc3ccc4c(c3)OCO4)C2)nc2ccccc21` [compound 410], with 5.28.
For the compound `Cn1c(CN2CCC(c3ccc(C(F)(F)F)cc3)C(C)(C)C2)nc2ccccc21` (stereo not drawn) [compound 411], the pEC50 was 6.20.
Take `CC(C)Oc1ccc(C2CCN(Cc3nc4ccccc4n3C)CC2)cc1` [compound 412]: the pEC50 was 6.98.
In the case of `Cn1c(CN2CCC(c3ccccc3OC(F)(F)F)CC2)nc2ccccc21` [compound 413], the pEC50 is 7.11.
To `Cn1c(CN2CCC(c3cc(F)cc(F)c3)CC2)nc2ccccc21` [compound 414] belongs 6.90; to `Cn1c(CN2CCC(c3cc(F)cc(F)c3)CC2)nc2ccccc21` [compound 415], 6.72; to `Cn1c(CN2CCC(c3ccccc3C#N)CC2)nc2ccccc21` [compound 416], 6.77.
Then `Cn1c(CN2CCC(c3cccc(Cl)c3)CC2)nc2ccccc21` [compound 417], with 6.74; and `Cn1c(CN2CCC(c3cccc(C#N)c3)CC2)nc2ccccc21` [compound 418], with 5.79; and `Cn1c(CN2CCC(c3cccc(C(C)(C)C)c3)CC2)nc2ccccc21` [compound 419], with 6.83.
Then `Cn1c(CN2CCC(c3ccc(Cl)cc3)CC2)nc2ccccc21` [compound 420], with 6.18; and `COc1ccc(C2CCN(Cc3nc4ccccc4n3C)CC2)cc1` [compound 421], with 6.67; and `Cn1c(CN2CCC(c3ccc(F)cc3F)CC2)nc2ccccc21` [compound 422], with 7.84.
Consider `Cn1c(CN2CCC(c3ccc(F)cc3F)CC2)nc2cc(F)ccc21` [compound 423], for which the pEC50 is 7.45.
Consider `Cn1c(CN2CCC(c3ccc(F)cc3F)CC2)nc2cccc(F)c21` [compound 424], for which the pEC50 was 7.32.
Regarding `COc1cc(C2CCN(Cc3nc4ccccc4n3C)CC2)ccc1F` [compound 425], the pEC50 is 6.36.
With `CCc1ccc(C2CCN(Cc3nc4ccccc4n3C)CC2)cc1` [compound 426], the pEC50 was 7.05.
For `Cn1c(CN2CCC(c3ccc(F)cc3F)CC2)nc2cc(C#N)ccc21` [compound 427], the pEC50 is 6.85.
Consider `Cn1c(CN2CCC(c3ccc(C(F)(F)F)cc3)C(O)C2)nc2ccccc21` (stereo not drawn) [compound 428], for which the pEC50 is 5.95.
For `Cc1ccccc1C1CCN(Cc2nc3ccccc3n2C)CC1` [compound 429], the pEC50 is 7.19.
Then `Cn1c(CN2CCC(c3cccc(F)c3)CC2)nc2ccccc21` [compound 430], with 5.48; and `Cn1c(CN2CCC(c3cc(F)cc4c3OCCC4)CC2)nc2ccccc21` [compound 431], with 5.27.
To `Cn1c(CN2CCC(F)(c3ccc(Cl)cc3)CC2)nc2ccccc21` [compound 432] belongs 6.59.
To `Cn1c(CN2CCC(F)(c3ccc(C(F)(F)F)cc3)CC2)nc2ccccc21` [compound 433] belongs 6.91; to `Cn1c(CN2CCC(F)(c3ccc(F)cc3)CC2)nc2ccccc21` [compound 434], 6.51.
Take `Cc1cccc(NC(=O)c2cccc(C3CCN(Cc4nc5ccccc5n4C)CC3)c2)n1` [compound 435]: the pEC50 was 5.48.
Then `CCCN(CC1CC1)C(=O)c1cccc(C2CCN(Cc3nc4ccccc4n3C)CC2)c1` [compound 436], with 5.66.
To `Cn1c(CN2CCC(c3ccc(C(=O)NC4CCCC4)cc3)CC2)nc2ccccc21` [compound 437] belongs 5.28; to `COc1cccc(F)c1C1CCN(Cc2nc3ccccc3n2C)CC1` [compound 438], 7.09; to `Cn1c(CN2CCC(F)(c3ccc(F)cc3)CC2)nc2cccc(F)c21` [compound 439], 6.34.
To `CC1=C(c2ccccc2)C(C)CN(Cc2nc3ccccc3n2C)C1` (stereo not drawn) [compound 440] belongs 5.55.
Take `Cn1c(CN2CCC(c3ccc(C(F)(F)F)cc3)C(F)C2)nc2ccccc21` (stereo not drawn) [compound 441]: the pEC50 was 6.80.
Then `CCOc1ccc(C2CCN(Cc3nc4ccccc4n3C)CC2)cc1` [compound 442], with 7.09; and `Cn1c(CN2CCC(c3ccc(F)c(Cl)c3)CC2)nc2ccccc21` [compound 443], with 7.24; and `Cn1c(CN2CCC(c3ccc(F)c(Cl)c3)CC2)nc2cccc(F)c21` [compound 444], with 6.88.
For the compound `Cn1c(CN2CCC(c3ccc(C(F)(F)F)cc3)C(F)C2)nc2cccc(F)c21` (stereo not drawn) [compound 445], the pEC50 is 6.86.
To `Cn1c(CN2CCC(c3ccc(Cl)c(C(F)(F)F)c3)CC2)nc2ccccc21` [compound 446] belongs 7.37; to `Cn1c(CN2CCC(c3ccc(F)c(Cl)c3)CC2)nc2cc(F)ccc21` [compound 447], 7.34; to `Cn1c(CN2CCC(c3ccc(Cl)c(F)c3)CC2)nc2ccccc21` [compound 450], 7.10.
`Cn1c(CN2CCC(c3ccc(Cl)cc3F)CC2)nc2ccccc21` [compound 451]: the pEC50 was 8.12.
To `Cn1c(CN2CCC(c3cccc(F)c3F)CC2)nc2ccccc21` [compound 452] belongs 7.69; to `Cn1c(CN2CCC(c3ccc(Cl)c(F)c3)CC2)nc2cccc(F)c21` [compound 453], 6.80.
On to `Cn1c(CN2CCC(c3ccc(Cl)c(F)c3)CC2)nc2cc(F)ccc21` [compound 454], for which the pEC50 was 7.05.
